Data: US7521478B2, “Total synthesis of myriaporones” (Pharma Mar, S.A.U., priority 2002, dated 2009)

Tests used:
Format in all cases: cell-based
[1] = test system: K-562; test: Inhibition of cell growth by colorimetric SRB assay, K-562; settings: Homo sapiens, K562, K-562, 48 hours exposure; for CC50: cell killing, read-out: LC50 (the source's name); for IC (total growth inhibition): read-out: TGI
Text: (§1) The finality of these assays is to interrupt the growth of a “in vitro” tumor cell culture by means a continued exhibition of the cells to the sample to be testing.
(§2) Inhibition of Cell Growth by Colorimetric Assay.
(§3) A colorimetric type of assay, using sulforhodamine B (SRB) reaction has been adapted for a quantitative measurement of cell growth and viability (following the technique described by P. A. Skehan, et al., J. Natl. CancerInst. 1990, 82, 1107-1112).
(§4) This form of assay employs 96 well cell culture microplates of 9 mm diameter (T. Mosmann et al., J. of Immuological Methods 1983, 65, 55-63; G. T. Faircloth et al., J. of Tissue and Culture Methods 1988, 11, 201-205). Most of the cell lines are obtained from American Type Culture Collection (ATCC) derived from different human cancer types.
(§5) Cells are maintained in RPMI 1640 10% FBS, supplemented with 0.1 g/L penicillin and 0.1 g/L streptomycin sulfate and then incubated at 37° C., 5% CO2 and 98% humidity. For the experiments, cells were harvested from subconfluent cultures using trypsin and resuspended in fresh medium before plating.
(§6) Cells are seeded in 96 well microtiter plates, at 5×10^3 cells per well in aliquots of 195 μL medium, and they are allowed to attach to the plate surface by growing in drug free medium for 18 hours. Afterward, samples are added in aliquots of 5 μL in a ranging from 10 to 10^−8 μg/mL, dissolved in DMSO/EtOH/PBS (0.5:0.5:99). After 48 hours exposure, the antitumor effect are measured by the SRB methodology: cells are fixed by adding 50 μL of cold 50% (wt/vol) trichloroacetic acid (TCA) and incubated for 60 minutes at 4° C. Plates are washed with deionizer water and dried. One hundred μl of SRB solution (0.4% wt/vol in 1% acetic acid) is added to each microliter well and incubated for 10 minutes at room temperature. Unbound SRB is removed by washing with 1% acetic acid. Plates are air dried and bound stain is solubilized with Tris buffer. Optical densities are read on a automated spectrophotometric plate reader at a single wavelength of 490 nm.
(§7) The values for mean +/−SD of data from triplicate wells are calculated. Some parameters for cellular responses can be calculated: GI=growth inhibition, TGI=total growth inhibition (cytostatic effect) and LC=cell killing (cytotoxic effect).

[2] = test system: HT-29; test: Inhibition of cell growth by colorimetric SRB assay, HT-29; settings: Homo sapiens, HT-29, 48 hours exposure; for CC50: cell killing, read-out: LC50 (the source's name); for IC (total growth inhibition): read-out: TGI
Text: as §1, §2, §3, §4, §5, §6, §7

[3] = test system: DU-145; test: Inhibition of cell growth by colorimetric SRB assay, DU-145; settings: Homo sapiens, DU-145, 48 hours exposure; for CC50: cell killing, read-out: LC50 (the source's name); for IC (total growth inhibition): read-out: TGI
Text: as §1, §2, §3, §4, §5, §6, §7

[4] = test system: A-549; test: Inhibition of cell growth by colorimetric SRB assay, A-549; settings: Homo sapiens, A549, A-549, 48 hours exposure; for CC50: cell killing, read-out: LC50 (the source's name); for IC (total growth inhibition): read-out: TGI
Text: as §1, §2, §3, §4, §5, §6, §7

[5] = test system: SK-MEL-28; test: Inhibition of cell growth by colorimetric SRB assay, MEL-28; settings: Homo sapiens, SK-MEL-28, MEL-28, 48 hours exposure; for CC50: cell killing, read-out: LC50 (the source's name); for IC (total growth inhibition): read-out: TGI
Text: as §1, §2, §3, §4, §5, §6, §7

[6] = test system: LoVo-Dox; test: Inhibition of cell growth by colorimetric SRB assay, LOVO-DOX; settings: Homo sapiens, LOVO-DOX, 48 hours exposure; for LC50 (concentration for 50% cell killing): read-out: LC50; for IC (total growth inhibition): read-out: TGI
Text: as §1, §2, §3, §4, §5, §6, §7

[7] = test system: HeLa; test: Inhibition of cell growth by colorimetric SRB assay, HELA; settings: Homo sapiens, HELA, 48 hours exposure; for CC50: cell killing, read-out: LC50 (the source's name); for IC (total growth inhibition): read-out: TGI
Text: as §1, §2, §3, §4, §5, §6, §7

[8] = test system: IGROV-ET; test: Inhibition of cell growth by colorimetric SRB assay, IGROV-ET; settings: Homo sapiens, IGROV-ET, 48 hours exposure; for CC50: cell killing, read-out: LC50 (the source's name); for IC (total growth inhibition): read-out: TGI
Text: as §1, §2, §3, §4, §5, §6, §7

[9] = test system: IGROV; test: Inhibition of cell growth by colorimetric SRB assay, IGROV; settings: Homo sapiens, 48 hours exposure; for CC50: cell killing, read-out: LC50 (the source's name); for IC (total growth inhibition): read-out: TGI
Text: as §1, §2, §3, §4, §5, §6, §7

[10] = test system: LNCaP; test: Inhibition of cell growth by colorimetric SRB assay, LN-caP; settings: Homo sapiens, LN-caP, 48 hours exposure; for CC50: cell killing, read-out: LC50 (the source's name); for IC (total growth inhibition): read-out: TGI
Text: as §1, §2, §3, §4, §5, §6, §7

[11] = test system: PANC-1; test: Inhibition of cell growth by colorimetric SRB assay, PANC-1; settings: Homo sapiens, PANC-1, 48 hours exposure; for CC50: cell killing, read-out: LC50 (the source's name); for IC (total growth inhibition): read-out: TGI
Text: as §1, §2, §3, §4, §5, §6, §7

[12] = test system: HeLa-APL; test: Inhibition of cell growth by colorimetric SRB assay, HELA-APL; settings: Homo sapiens; for GI50 / IC (total growth inhibition): 48 h; for IC (total growth inhibition): read-out: TGI; for CC50: HELA-APL, 48 hours exposure, cell killing, read-out: LC50 (the source's name)
Text: as §1, §2, §3, §4, §5, §6, §7

[13] = test system: LoVo; test: Inhibition of cell growth by colorimetric SRB assay, LOVO; settings: Homo sapiens, LOVO, 48 hours exposure; for LC50: cell killing, read-out: LC50; for IC (total growth inhibition): read-out: TGI
Text: as §1, §2, §3, §4, §5, §6, §7

Row | Compound | GI50 [1] [µM] | CC50 [1] [µM] | IC (total growth inhibition) [1] [µM] | GI50 [2] [µM] | CC50 [2] [µM] | IC (total growth inhibition) [2] [µM] | GI50 [3] [µM] | CC50 [3] [µM] | IC (total growth inhibition) [3] [µM] | GI50 [4] [µM] | CC50 [4] [µM] | IC (total growth inhibition) [4] [µM] | GI50 [5] [µM] | CC50 [5] [µM] | IC (total growth inhibition) [5] [µM] | GI50 [6] [µM] | LC50 (concentration for 50% cell killing) [6] [µM] | IC (total growth inhibition) [6] [µM] | GI50 [7] [µM] | CC50 [7] [µM] | also measured
1 | C/C=C\[C@H](C)[C@H]1OC1(C)[C@@H](O[Si](C)(C)C(C)(C)C)[C@@H](COC(C)=O)C(=O)[C@H](COC(C)=O)[C@H](O)CC(=O)CC (some centres unmarked) [Compound 44] | 6.1 | 17.5 | 11.4 | 6.22 | 17 | 17.5 | 4.99 | 17.5 | 10.4 | 4.01 | 15.4 | 7.87 | 3.84 | 12.6 | 6.96 | 4.27 | 17.5 | 8.9 | 3.91 | 14.7 | IC (total growth inhibition) [7]: 7.59 µM; GI50 [8]: 4.15 µM; CC50 [8]: 15.8 µM; IC (total growth inhibition) [8]: 8.09 µM; GI50 [9]: 4.13 µM; CC50 [9]: 14.2 µM; IC (total growth inhibition) [9]: 7.67 µM; GI50 [10]: 3.77 µM; CC50 [10]: 16.6 µM; IC (total growth inhibition) [10]: 7.88 µM; GI50 [11]: 3.73 µM; CC50 [11]: 13.8 µM; IC (total growth inhibition) [11]: 7.2 µM; GI50 [12]: 3.77 µM; IC (total growth inhibition) [12]: 9.83 µM; CC50 [12]: 17.5 µM; GI50 [13]: 4.05 µM; LC50 [13]: 17.5 µM; IC (total growth inhibition) [13]: 8.99 µM
2 | C/C=C\[C@H](C)[C@H]1OC1(C)[C@@H](O[Si](C)(C)C(C)(C)C)[C@@H](COC(C)=O)C(=O)[C@H](CO)[C@H](O)CC(=O)CC (some centres unmarked) [Compound 43] | 3.59 | 16.5 | 7.72 | 4.24 | 16.2 | 8.28 | 4.99 | 18.7 | 9.66 | 4.44 | 16.2 | 8.49 | 3.9 | 13.4 | 7.24 | 3.31 | 15.7 | 7.21 | 4.37 | 16.4 | IC (total growth inhibition) [7]: 8.47 µM; GI50 [8]: 4.52 µM; CC50 [8]: 17.8 µM; IC (total growth inhibition) [8]: 8.96 µM; GI50 [9]: 4.94 µM; CC50 [9]: 18.9 µM; IC (total growth inhibition) [9]: 9.99 µM; GI50 [10]: 3.78 µM; CC50 [10]: 15.4 µM; IC (total growth inhibition) [10]: 7.62 µM; GI50 [11]: 3.73 µM; CC50 [11]: 13.2 µM; IC (total growth inhibition) [11]: 7.02 µM; GI50 [12]: 4.27 µM; IC (total growth inhibition) [12]: 9.34 µM; CC50 [12]: 18.9 µM; GI50 [13]: 4.03 µM; LC50 [13]: 18.9 µM; IC (total growth inhibition) [13]: 9.06 µM
3 | C/C=C\[C@H](C)[C@H]1OC1(C)[C@@H](O[Si](C)(C)C(C)(C)C)[C@@H](COC(C)=O)C(=O)[C@H](COC(C)=O)[C@@H](CC(=O)CC)OC(C)=O (some centres unmarked) [Compound 45] | 16.3 | 16.3 | 16.3 | 16.3 | 16.3 | 16.3 | 16.3 | 16.3 | 16.3 | 16.3 | 16.3 | 16.3 | 16.3 | 16.3 | 16.3 | 10.5 | 16.3 | 16.3 | 16.3 | 16.3 | IC (total growth inhibition) [7]: 16.3 µM; GI50 [8]: 15.8 µM; CC50 [8]: 16.3 µM; IC (total growth inhibition) [8]: 16.3 µM; GI50 [9]: 16.3 µM; CC50 [9]: 16.3 µM; IC (total growth inhibition) [9]: 16.3 µM; GI50 [10]: 8.34 µM; CC50 [10]: 16.3 µM; IC (total growth inhibition) [10]: 16.3 µM; GI50 [11]: 8.24 µM; CC50 [11]: 16.3 µM; IC (total growth inhibition) [11]: 16.3 µM; GI50 [12]: 16.3 µM; CC50 [12]: 16.3 µM; GI50 [13]: 8.26 µM; LC50 [13]: 16.3 µM; IC (total growth inhibition) [13]: 16.3 µM
